Series [1] relates to Bacillus subtilis (ATCC43639). Briefly: Microtitre plate assay, IC90 determination (BSU 43639). The class given is cell-based. The settings on record: 90% inhibitory concentration for bacterial growth, 37° C., 24 hours, resazurin fluorescence. The procedure: (§1) The bacteria used in this study were grown overnight in flasks containing 100 ml Mueller-Hinton Broth (Becton Dickinson—cat. no. 275730) in sterile de-ionized water, with shaking, at 37° C. Stocks (0.5 ml/tube) were stored at −70° C. until use. Bacteria titrations were performed in microtiter plates and colony forming units (CFUs) were determined. In general, an inoculum level of approximately 100 CFUs was used for susceptibility testing.
(§2) Flat-bottom, sterile 96-well plastic microtiter plates were filled with 180 μl of sterile deionized water, supplemented with 0.25% BSA. Subsequently, stock solutions (7.8× final test concentration) of compounds were added in 45 μl volumes in column 2 Serial five-fold dilutions (45 μl in 180 μl) were made directly in the microtiter plates from column 2 to reach column 11. Untreated control samples with (column 1) and without (column 12) inoculum were included in each microtiter plate. Depending on the bacteria type, approximately 10 to 60 CFU per well of bacteria inoculum (100 TCID50), in a volume of 100 μl in 2.8× Mueller-Hinton broth medium, was added to the rows A to H, except column 12. The same volume of broth medium without inoculum was added to column 12 in row A to H. The cultures were incubated at 37° C. for 24 hours under a normal atmosphere (incubator with open air valve and continuous ventilation). At the end of incubation, one day after inoculation, the bacterial growth was quantitated fluorometrically. Therefore resazurin (0.6 mg/ml) was added in a volume of 20 μl to all wells 3 hours after inoculation, and the plates were re-incubated overnight. A change in colour from blue to pink indicated the growth of bacteria. The fluorescence was read in a computer-controlled fluorometer (Cytofluor Biosearch) at an excitation wavelength of 530 nm and an emission wavelength of 590 nm. The % growth inhibition achieved by the compounds was calculated according to standard methods. The IC90 (expressed in μg/ml) was defined as the 90% inhibitory concentration for bacterial growth.

Series [2] concerns Enterococcus faecalis (ATCC29212). The series is described as follows: Microtitre plate assay, IC90 determination (EFA 29212). Format: cell-based. The settings on record: 90% inhibitory concentration for bacterial growth, 37° C., resazurin fluorescence; for IC90 EFA 29212: 24 hours. In short, it runs like this:
(§3)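 IC90 (μg/ml): 90% inhibitory concentration for bacterial growth, from resazurin fluorescence. Incubation lasted 24 hours at 37° C, with inoculum of about 10–60 CFU per well in Mueller-Hinton broth.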
For orientation: The colour change of resazurin is a common sign of viable cells or microbes.

In series [3] the test system is methicilline resistant Staphylococcus aureus (MRSA) (a clinical isolate from the University of Antwerp). The series is described as follows: Microtitre plate assay, IC90 determination (STA RMETH). The settings on record: 90% inhibitory concentration for bacterial growth, 37° C., 24 hours, resazurin fluorescence. The class given is cell-based. The procedure:
as §1, §2

The test system of series [4] is Streptococcus pneumoniae (ATCC6305). The series is described as follows: Microtitre plate assay, IC90 determination (SPN 6305). The class given is cell-based. The settings on record: 90% inhibitory concentration for bacterial growth, 37° C., resazurin fluorescence; for IC90 SPN 6305: 24 hours. In short, it runs like this:
as §3

Series [5] concerns Staphylococcus aureus (ATCC29213). Briefly: Microtitre plate assay, IC90 determination (STA 29213). Format: cell-based. The settings on record: 90% inhibitory concentration for bacterial growth, 37° C., resazurin fluorescence; for IC90 STA 29213: 24 hours. In short, it runs like this: as §3
Series [6] deals with Pseudomonas aeruginosa (ATCC27853). The series is described as follows: Microtitre plate assay, IC90 determination (PAE 27853). The class given is cell-based. The settings on record: 90% inhibitory concentration for bacterial growth, 37° C., resazurin fluorescence; for IC90 PAE 27853: 24 hours. Summed up: as §3
Series [7] deals with Streptococcus pyogens (ATCC8668). The series is described as follows: Microtitre plate assay, IC90 determination (SPY 8668). The class given is cell-based. The settings on record: 90% inhibitory concentration for bacterial growth, 37° C., resazurin fluorescence; for IC90 SPY 8668: 24 hours; for IC90: Streptococcus, ATCC8668, 24 h. In short, it runs like this: as §3
Series [8] has as its system Staphylococcus aureus (ATCC25923). Briefly: Microtitre plate assay, IC90 determination (STA 25923). Format: cell-based. The settings on record: 90% inhibitory concentration for bacterial growth, 37° C., 24 hours, resazurin fluorescence. The procedure: as §1
Flat-bottom, sterile 96-well plastic microtiter plates were filled with 180 μl of sterile deionized water, supplemented with 0.25% BSA. Subsequently, stock solutions (7.8× final test concentration) of compounds were added in 45 μl volumes in column 2 Serial five-fold dilutions (45 μl in 180 μl) were made directly in the microtiter plates from column 2 to reach column 11. Untreated control samples with (column 1) and without (column 12) inoculum were included in each microtiter plate. […] At the end of incubation, one day after inoculation, the bacterial growth was quantitated fluorometrically. […] The fluorescence was read in a computer-controlled fluorometer (Cytofluor Biosearch) at an excitation wavelength of 530 nm and an emission wavelength of 590 nm. The % growth inhibition achieved by the compounds was calculated according to standard methods. […]

Series [9] has as its system Listeria monocytogenes (ATCC49594). The series is described as follows: Microtitre plate assay, IC90 determination (LMO 49594). Format: cell-based. The settings on record: 90% inhibitory concentration for bacterial growth, 37° C., 24 hours, resazurin fluorescence. The procedure:
as §1, §2

≈ marks a conversion by molar mass, not a printed value.

By IC90 is commonly meant the concentration at which the effect reaches the 90% level. High values mean a need for much substance, low ones an effect from little substance. For orientation: melting point means the temperature of the solid-liquid transition.

Regarding `COc1nc2ccc(Br)cc2cc1C(c1ccccc1)C(O)(CCc1ccccc1)CCN(C)C` (racemic) [Compound 14], the “IC90 BSU 43639” value in series [1] came out at 13.4 µg/mL (≈ 25.1 µM). In addition, the “IC90 EFA 29212” value in series [2] came to 9.5 µg/mL (≈ 17.8 µM). Also, the “IC90 STA RMETH” value in series [3] stood at 13.4 µg/mL (≈ 25.1 µM). Besides, the “IC90 SPN 6305” value in series [4] came out at 42.4 µg/mL (≈ 79.5 µM). The “IC90 STA 29213” value in [5] is 13.4 µg/mL (≈ 25.1 µM). Further, the “IC90 PAE 27853” value in series [6] came to 9.5 µg/mL (≈ 17.8 µM). Also, the “IC90 SPY 8668” value in series [7] was determined as 10.6 µg/mL (≈ 19.9 µM). Further, the “IC90 STA 25923” value in series [8] is 11.9 µg/mL (≈ 22.3 µM). Moreover, in series [9], the “IC90 LMO 49594” value was determined as 10.6 µg/mL (≈ 19.9 µM).
`COc1nc2ccc(Br)cc2cc1C(c1ccccc1)C(O)(CCc1ccccc1)CCN(C)C` (racemic) [Compound 15]: in series [1], the “IC90 BSU 43639” value is 10.6 µg/mL (≈ 19.9 µM). The “IC90 EFA 29212” value in series [2] was found to be 4.8 µg/mL (≈ 9 µM). For the same compound, the “IC90 STA RMETH” value in [3] stood at 10.6 µg/mL (≈ 19.9 µM). For the same compound, in series [4], the “IC90 SPN 6305” value was 7.5 µg/mL (≈ 14.1 µM). In addition, the “IC90 STA 29213” value in series [5] came to 4.8 µg/mL (≈ 9 µM). For the same compound, in series [6], the “IC90 PAE 27853” value came to 4.8 µg/mL (≈ 9 µM). Besides, the “IC90 SPY 8668” value in series [7] turned out to be 4.2 µg/mL (≈ 7.87 µM). For the same compound, in [8], the “IC90 STA 25923” value was determined as 4.8 µg/mL (≈ 9 µM). Also, in series [9], the “IC90 LMO 49594” value worked out at 2.1 µg/mL (≈ 3.94 µM).
As for `COc1ccc(C(c2cc3cc(Br)ccc3nc2OC)C(O)(CCc2ccccc2)CCN(C)C)cc1` (stereo not shown) [Compound 74], the “IC90 EFA 29212” value in series [2] was 1.8 µg/mL (≈ 3.19 µM). Moreover, the 90% effect concentration (IC90) in [3] came out at 12.6 µg/mL (≈ 22.4 µM). Besides, the “IC90 SPN 6305” value in series [4] amounted to 1.8 µg/mL (≈ 3.19 µM). Further, the “IC90 STA 29213” value in [5] was 1.8 µg/mL (≈ 3.19 µM). The “IC90 PAE 27853” value in series [6] was 1.8 µg/mL (≈ 3.19 µM). Further, the “IC90 SPY 8668” value in [7] worked out at 1.8 µg/mL (≈ 3.19 µM).
In turn, `COc1nc2ccc(Br)cc2cc1C(c1ccccc1)C(O)(CCc1cccc2ccccc12)CCN(C)C` (stereo not shown) [Compound 8] yielded a melting point of 160 °C. The same compound came in with an IC90 in [2] (Enterococcus faecalis, ATCC29212, 24 h) of 1.9 µg/mL (≈ 3.26 µM). Further, in series [3], the concentration for an effect of 90% (IC90) was 1.9 µg/mL (≈ 3.26 µM). Besides, the “IC90 SPN 6305” value in series [4] came to 11.6 µg/mL (≈ 19.9 µM). The “IC90 STA 29213” value in series [5] was found to be 1.9 µg/mL (≈ 3.26 µM). The IC90 in series [6] (Pseudomonas aeruginosa, ATCC27853, 24 h) turned out to be 2.3 µg/mL (≈ 3.94 µM). The compound also returned an IC90 in series [7] of 1.9 µg/mL (≈ 3.26 µM). The compound further showed an IC90 in series [9] of 1.9 µg/mL (≈ 3.26 µM).
Consider `COc1nc2ccc(Br)cc2cc1C(c1ccc(C)cc1)C(O)(CCc1ccccc1)CCN(C)C` (stereo not shown) [Compound 65], for which the “IC90 EFA 29212” value in [2] came to 1.7 µg/mL (≈ 3.1 µM). Moreover, the IC90 in [3] was 10.9 µg/mL (≈ 19.9 µM); in series [4] (Streptococcus pneumoniae, ATCC6305, 24 h), 0.8 µg/mL (≈ 1.46 µM); in series [7], 1.7 µg/mL (≈ 3.1 µM). Moreover, in series [5], the “IC90 STA 29213” value worked out at 3.9 µg/mL (≈ 7.12 µM). The “IC90 PAE 27853” value in series [6] turned out to be 1.7 µg/mL (≈ 3.1 µM).
In the case of `COc1nc2ccc(Br)cc2cc1C(c1ccc(Cl)cc1)C(O)(CCc1ccccc1)CCN(C)C` (stereo not shown) [Compound 69], the “IC90 EFA 29212” value in [2] worked out at 1.8 µg/mL (≈ 3.17 µM). The 90% effect concentration (IC90) in series [3] turned out to be 12.7 µg/mL (≈ 22.4 µM); in series [5] (Staphylococcus aureus, ATCC29213, 24 h) it was 1.8 µg/mL (≈ 3.17 µM). The “IC90 SPN 6305” value in series [4] is 0.5 µg/mL (≈ 0.88 µM). Further, in [6], the “IC90 PAE 27853” value came out at 1.8 µg/mL (≈ 3.17 µM). Besides, in series [7], the “IC90 SPY 8668” value was determined as 4.0 µg/mL (≈ 7.04 µM).
Consider `COc1nc2ccc(Br)cc2cc1C(c1ccccc1)C(O)(CCc1ccc(F)cc1)CCN(C)C` (racemic) [Compound 50], for which the “IC90 BSU 43639” value in series [1] worked out at 9.8 µg/mL (≈ 17.8 µM). For the same compound, in [2], the “IC90 EFA 29212” value is 1.7 µg/mL (≈ 3.08 µM). Further, the “IC90 STA RMETH” value in [3] amounted to 8.7 µg/mL (≈ 15.8 µM). Moreover, the “IC90 SPN 6305” value in series [4] turned out to be 0.4 µg/mL (≈ 0.725 µM). The “IC90 STA 29213” value in [5] turned out to be 1.7 µg/mL (≈ 3.08 µM). For the same compound, in [6], the “IC90 PAE 27853” value was found to be 1.7 µg/mL (≈ 3.08 µM). Besides, the “IC90 SPY 8668” value in [7] was 1.7 µg/mL (≈ 3.08 µM). Moreover, in [9], the “IC90 LMO 49594” value turned out to be 8.7 µg/mL (≈ 15.8 µM).
Turning to `COc1nc2ccc(Br)cc2cc1C(c1ccccc1)C(O)(CCc1ccc(F)c(F)c1)CCN(C)C` (racemic) [Compound 51], the “IC90 EFA 29212” value in series [2] came out at 10.1 µg/mL (≈ 17.7 µM). For the same compound, in [3], the “IC90 STA RMETH” value turned out to be 11.4 µg/mL (≈ 20 µM). Also, the “IC90 SPN 6305” value in [4] was 0.4 µg/mL (≈ 0.702 µM). Further, the “IC90 STA 29213” value in series [5] is 1.8 µg/mL (≈ 3.16 µM). The “IC90 PAE 27853” value in [6] is 9.0 µg/mL (≈ 15.8 µM). For the same compound, in series [7], the “IC90 SPY 8668” value was 5.7 µg/mL (≈ 10 µM).

The values are drawn from US20130030017A1, “QUINOLINE DERIVATIVES AS ANTIBACTERIAL AGENTS” (priority 2005, published 2013).
